Tests used:
Test in all cases: relative viability (nuclei count vs DMSO), 5 days (fraction); higher = more cells survive
[1] = compound: CC1=CC=C(C=C1)C(=O)CN2C3=C(CCCC3)SC2=N [Pifithrin_alpha] + Nc1nc2[nH]cc(CCc3ccc(C(=O)N[C@@H](CCC(=O)O)C(=O)O)cc3)c2c(=O)[nH]1 [Pemetrexed] (partner 0.2 µM)
Summary of the method: (§1)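 Lung cancer cell lines in 1536-well plates got either a single drug or a fixed anchor-drug dose together with five library-drug doses (not always all listed) in √10 steps, by pin tool, on the day after seeding. Nuclei were counted after 5 days, and relative viability is the treated-to-vehicle ratio of nuclei counts. Values are medians of duplicate plates.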

Axitinib + Decitabine = compound: CNC(=O)c1ccccc1Sc1ccc2c(/C=C/c3ccccn3)n[nH]c2c1 [Axitinib] + Nc1ncn([C@H]2C[C@H](O)[C@@H](CO)O2)c(=O)n1 [Decitabine] (partner 2 µM)
Summary of the method: as §1

Bemcentinib + Pictilisib = compound: Nc1nc(Nc2ccc3c(c2)CC[C@@H](N2CCCC2)CC3)nn1-c1cc2c(nn1)-c1ccccc1CCC2 [Bemcentinib] + CS(=O)(=O)N1CCN(Cc2cc3nc(-c4cccc5[nH]ncc45)nc(N4CCOCC4)c3s2)CC1 [Pictilisib] (partner 1 µM)
Summary of the method: as §1

Bemcentinib + Dasatinib = compound: Nc1nc(Nc2ccc3c(c2)CC[C@@H](N2CCCC2)CC3)nn1-c1cc2c(nn1)-c1ccccc1CCC2 [Bemcentinib] + Cc1nc(Nc2ncc(C(=O)Nc3c(C)cccc3Cl)s2)cc(N2CCN(CCO)CC2)n1 [Dasatinib] (partner 0.075 µM)
Summary of the method: as §1

## NCI-H650
[1]; first compound 3.162 µM
  relative viability: 0.938
[1]; first compound 10 µM
  relative viability: 0.967
[1]; first compound 31.62 µM
  relative viability: 0.831
[1]; first compound 100 µM
  relative viability: 0.789
Axitinib + Decitabine; first compound 0.005 µM
  relative viability: 0.287
Axitinib + Decitabine; first compound 0.01581 µM
  relative viability: 0.335
Axitinib + Decitabine; first compound 0.05 µM
  relative viability: 0.289
Axitinib + Decitabine; first compound 0.1581 µM
  relative viability: 0.31
Axitinib + Decitabine; first compound 0.5 µM
  relative viability: 0.306
Bemcentinib + Pictilisib; first compound 0.04 µM
  relative viability: 0.835
Bemcentinib + Pictilisib; first compound 0.1265 µM
  relative viability: 1.08
Bemcentinib + Pictilisib; first compound 0.4 µM
  relative viability: 0.887
Bemcentinib + Pictilisib; first compound 1.265 µM
  relative viability: 0.766
Bemcentinib + Pictilisib; first compound 4 µM
  relative viability: 0.827
Bemcentinib + Dasatinib; first compound 0.04 µM
  relative viability: 0.424
Bemcentinib + Dasatinib; first compound 0.1265 µM
  relative viability: 0.514
Bemcentinib + Dasatinib; first compound 0.4 µM
  relative viability: 0.474
Bemcentinib + Dasatinib; first compound 1.265 µM
  relative viability: 0.43
Bemcentinib + Dasatinib; first compound 4 µM
  relative viability: 0.4

Source: the supplement of paper PMC10307832
